Where two headings read alike, the source gives them in different places.
Columns and labels:
[1] = Pharmacokinetic study in mice; format: in vivo; settings: mouse, male mice, plasma; for AUC(0-t): read-out: AUC0-t; for Cmax: read-out: Cmax
Experimental: Six male mice weighing 20-30 g were randomly divided into two groups. One group received an intravenous (IV) administration of the test compound at a dose of 2 mg/kg, while the other group received an oral (gavage) administration at a dose of 10 mg/kg. Blood samples were collected at 0.083, 0.25, 0.5, 1, 2, 4, 6, 8, and 24 hours post-administration. Plasma samples were processed and analyzed using LC/MS/MS in MRM)mode. A validated standard curve was established for the quantitative determination of the target compound in plasma, enabling the generation of plasma drug concentration-time profiles. Pharmacokinetic parameters were calculated using WinNonlin software with a non-compartmental model.

IRAK4 protein = target: T1, IRAK4 protein (Homo sapiens, UniProt Q9NWZ3); assay: IRAK4 Degradation Assay in THP-1 Cells (Western Blot); format: cell-based; parameters: endogenous in cells; host or cells: THP-1 cells
T1 sequence (Q9NWZ3 1-460): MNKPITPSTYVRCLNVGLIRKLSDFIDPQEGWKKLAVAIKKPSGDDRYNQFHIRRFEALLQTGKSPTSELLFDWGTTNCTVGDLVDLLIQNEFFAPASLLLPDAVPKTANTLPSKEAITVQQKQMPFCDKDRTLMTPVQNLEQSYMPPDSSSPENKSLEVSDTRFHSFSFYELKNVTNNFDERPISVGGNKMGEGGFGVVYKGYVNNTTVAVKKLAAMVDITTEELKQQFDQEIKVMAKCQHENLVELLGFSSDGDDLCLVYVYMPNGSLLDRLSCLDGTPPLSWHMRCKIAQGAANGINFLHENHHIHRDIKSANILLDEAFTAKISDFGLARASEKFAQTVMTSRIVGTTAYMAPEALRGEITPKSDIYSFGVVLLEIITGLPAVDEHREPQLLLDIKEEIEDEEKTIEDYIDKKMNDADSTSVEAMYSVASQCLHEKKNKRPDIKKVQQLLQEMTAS
Experimental: In a 6-well cell culture plate, an appropriate number of THP-1 cells were seeded. The plate was placed in a 5% CO2 incubator at 37°C for overnight culture. Then, the test compound's dimethyl sulfoxide solution was added, with the final concentration ranging from 0.0128 to 1000 nM. After continuous culture for 24 hours, the culture medium was removed, and the cells were collected in a 1.5 mL centrifuge tube. After adding lysis buffer and grinding thoroughly, the mixture was placed on ice for 30 minutes. It was then centrifuged at 15,000 xg and 4°C for 20 minutes. The supernatant was taken, and the level of IRAK4 protein was detected by Western Blot.

[2] = THP-1, THP-1 cells, 24 hours, 0.0128 to 1000 nM, IRAK4 protein level by Western Blot, read-out: Dmax%
[3] = THP-1 cells, 24 hours, 0.0128 to 1000 nM, IRAK4 protein level by Western Blot, read-out: DC50
[4] = THP-1 cells, 24 hours, 0.0128 to 1000 nM, IRAK4 protein level by Western Blot, read-out: Dmax%

Compound `Cn1c(=O)n(C2CCC(=O)NC2=O)c2cccc(N3CCN(C(=O)CN4CCC5(CC4)Cc4cc(NC(=O)c6cnn7cccnc67)c(N6CCC(CO)CC6)cc4O5)CC3)c21` (stereo not shown) [Compound 70] has a half-life ([1]; iv, i.v. (2 mg/kg)) of 3.1 h, an AUC(0-t) ([1]; iv, i.v. (2 mg/kg)) of 7880 ng·h/mL and a Tmax ([1]; po, p.o. (10 mg/kg)) of 2 h. It also gave a half-life ([1]; po, p.o. (10 mg/kg)) of 2.28 h, an AUC(0-t) ([1]; po, p.o. (10 mg/kg)) of 6680 ng·h/mL and a Cmax ([1]; po, p.o. (10 mg/kg)) of 870 ng/mL. It also gave a DC50 (IRAK4 protein) of 1.1 nM and a Dmax (IRAK4 protein; THP-1) of 91.2%.

Work on `Cn1nc(N2CCC(=O)NC2=O)c2cc(F)c(N3CCC(O)(CC(=O)N4CCC5(CC4)Cc4cc(NC(=O)c6cnn7cccnc67)c(N6CCC(CO)CC6)cc4O5)CC3)cc21` [Example 77] yielded a half-life ([1]; iv, i.v. (2 mg/kg)) of 4.68 h, an AUC(0-t) ([1]; iv, i.v. (2 mg/kg)) of 12900 ng·h/mL and a Tmax ([1]; po, p.o. (10 mg/kg)) of 1 h. For the same compound, the half-life ([1]; po, p.o. (10 mg/kg)) was 3.85 h, the AUC(0-t) ([1]; po, p.o. (10 mg/kg)) was 38200 ng·h/mL and the Cmax ([1]; po, p.o. (10 mg/kg)) was 4830 ng/mL. The Dmax (IRAK4 protein; [2]) was 85.7% and the DC50 (IRAK4 protein; [3]) was 1.28 nM.

With `Cn1c(=O)n(C2CCC(=O)NC2=O)c2cccc(N3CCC(CN4CCC5(CC4)Cc4cc(NC(=O)c6cnn7cccnc67)c(N6CCC(CO)CC6)cc4O5)CC3)c21` (stereo not shown) [Example 78] the half-life ([1]; iv, i.v. (2 mg/kg)) was 33 h, the AUC(0-t) ([1]; iv, i.v. (2 mg/kg)) was 32700 ng·h/mL and the Tmax ([1]; po, p.o. (10 mg/kg)) was 1 h. For the same compound, the half-life ([1]; po, p.o. (10 mg/kg)) was 6.58 h, the AUC(0-t) ([1]; po, p.o. (10 mg/kg)) was 44900 ng·h/mL and the Cmax ([1]; po, p.o. (10 mg/kg)) was 2600 ng/mL. The Dmax (IRAK4 protein; [2]) was 94% and the DC50 (IRAK4 protein; [3]) was 0.86 nM.

With `Cn1c(=O)n(C2CCC(=O)NC2=O)c2cccc(C#CCO[C@H]3CC[C@H](CN4CCC5(CC4)Cc4cc(NC(=O)c6cnn7cc(C#N)cnc67)c(N6CCC(CO)CC6)cc4O5)CC3)c21` (stereo partly shown) [Example 87] the DC50 (IRAK4 protein; [3]) was 4.06 nM and the Dmax (IRAK4 protein; [4]) was 90%.

Work on `Cc1cc(-c2nc(C(=O)Nc3cc4c(cc3N3CCC(O)CC3)OC3(CCN(C[C@H]5CC[C@H](OCC#Cc6cccc7c6n(C)c(=O)n7C6CCC(=O)NC6=O)CC5)CC3)C4)co2)ccn1` (stereo partly shown) [Example 88] yielded a DC50 (IRAK4 protein; [3]) of 5.4 nM and a Dmax (IRAK4 protein; [4]) of 89%.

Work on `Cc1cc(-c2nc(C(=O)Nc3cc4c(cc3N3CCC(CO)CC3)OC3(CCN(C[C@H]5CC[C@H](OCC#Cc6cccc7c6n(C)c(=O)n7C6CCC(=O)NC6=O)CC5)CC3)C4)co2)ccn1` (stereo partly shown) [Example 89] yielded a DC50 (IRAK4 protein; [3]) of 6.02 nM and a Dmax (IRAK4 protein; [4]) of 84.6%.

Compound `Cn1c(=O)n(C2CCC(=O)NC2=O)c2cccc(C#CCO[C@H]3CC[C@H](CN4CCC5(CC4)Cc4cc(NC(=O)c6cnn7cc(CO)cnc67)c(N6CCC(CO)CC6)cc4O5)CC3)c21` (stereo partly shown) [Example 90] has a DC50 (IRAK4 protein; [3]) of 2.24 nM and a Dmax (IRAK4 protein; [4]) of 87.1%.

With `Cn1c(=O)n(C2CCC(=O)NC2=O)c2cccc(N3CCN(CCN4CCC5(CC4)Cc4cc(NC(=O)c6cnn7cccnc67)c(N6CCC(CO)CC6)cc4O5)CC3)c21` (stereo not shown) [Example 95] the half-life ([1]; iv, i.v. (2 mg/kg)) was 2.16 h, the AUC(0-t) ([1]; iv, i.v. (2 mg/kg)) was 4570 ng·h/mL and the Tmax ([1]; po, p.o. (10 mg/kg)) was 2 h. It also gave a half-life ([1]; po, p.o. (10 mg/kg)) of 2.78 h, an AUC(0-t) ([1]; po, p.o. (10 mg/kg)) of 11100 ng·h/mL and a Cmax ([1]; po, p.o. (10 mg/kg)) of 1210 ng/mL. The DC50 (IRAK4 protein) was 0.89 nM and the Dmax (IRAK4 protein; THP-1) was 95%.

In the case of `Cn1c(=O)n(C2CCC(=O)NC2=O)c2cccc(N3CCC(CCN4CCC5(CC4)Cc4cc(NC(=O)c6cnn7cccnc67)c(N6CCC(CO)CC6)cc4O5)CC3)c21` (stereo not shown) [Example 96], the Dmax (IRAK4 protein; [2]) was 92% and the DC50 (IRAK4 protein; [3]) was 1.65 nM.

Work on `O=C1CCC(N2C(=O)c3cc(F)c(N4CCC(CN5CCC6(CC5)Cc5cc(NC(=O)c7cnn8cccnc78)c(N7CCC(CO)CC7)cc5O6)CC4)cc3C2=O)C(=O)N1` (stereo not shown) [Example 97] yielded a Dmax (IRAK4 protein; [2]) of 87.9% and a DC50 (IRAK4 protein; [3]) of 7.85 nM.

In the case of `Cn1c(=O)n(C2CCC(=O)NC2=O)c2cccc(C3CCC(CN4CCC5(CC4)Cc4cc(NC(=O)c6cnn7cccnc67)c(N6CCC(CO)CC6)cc4O5)CC3)c21` (stereo not shown) [Example 98], the Dmax (IRAK4 protein; [2]) was 88.6% and the DC50 (IRAK4 protein; [3]) was 1.1 nM.
